Data on 21 compounds can be found in ChEMBL document CHEMBL1938330, “Inhibitory effects of polyphenols toward HCV from the mangrove plant Excoecaria agallocha L” (Bioorg Med Chem Lett, 2012).

pEC50, pIC50: −log10 of the molar value.

A short description of data set [1]: Inhibition of Hepatitic C virus NS3/4A protease by FRET assay. To be noted: for pIC50: read-out: IC50. Further details: species or system Hepacivirus hominis.
The nature of data set [2]: Cytotoxicity against human Huh7.5 cells after 96 hrs by MTT assay. Format: cell-based, Huh-7. (Tetrazolium assays rely on reduction of a dye to a coloured formazan, in cell work by metabolically active cells.)
A short description of data set [3]: Selectivity index, ratio of CC50 for human Huh7.5 cells to EC50 for Hepatitis C virus infected in human HuH7.5 cells. The class given is toxicity, cell-based, Huh-7. To be noted: read-out: Ratio CC50/EC50.
The next data set deals with Hepatitis C virus. Kind of data set: Antiviral activity against Hepatitis C virus infected in human Huh7.5 cells assessed as inhibition of viral replication after 96 hrs by quantitative RT-PCR analysis. The class given is functional, organism-based, Hepacivirus hominis. As to conditions: Huh-7, 96 h.

`COc1cc(/C=C/CO[C@@H]2O[C@H](CO)[C@@H](O)[C@H](O)[C@H]2O)cc(OC)c1O` showed an IC50 in data set [1] of more than 10 µg/mL. The same measure, in the same setting: in the case of `O=c1oc2c(O)c(O[C@@H]3OC[C@@H](O)[C@H](O)[C@H]3O)cc3c(=O)oc4c(O)c(O)cc1c4c23` [ELLAGIC ACID 4-O-XYLOPYRANOSIDE] it was more than 10 µg/mL; in that of `COc1ccc(CO)cc1O[C@@H]1O[C@H](COC(=O)c2cc(O)c(O)c(O)c2)[C@@H](O)[C@H](O)[C@H]1O`, more than 10 µg/mL. The same measure, in the same setting: in the case of `COc1cc(O[C@@H]2O[C@H](CO[C@@H]3O[C@H](C)[C@@H](O)[C@H](O)[C@@H]3O)[C@@H](O)[C@H](O)[C@H]2O)ccc1O` [CUNEATASIDES D] it was more than 10 µg/mL; in that of `COc1cc(CO[C@@H]2O[C@H](CO)[C@@H](O)[C@H](O)[C@H]2O)cc(OC)c1O`, more than 10 µg/mL. `COc1ccc2c(O[C@@H]3C[C@H]4C(=O)N[C@]5(C(=O)O)C[C@H]5/C=C\CCCCC[C@H](NC(=O)OC5CCCC5)C(=O)N4C3)cc(-c3csc(NC(C)C)n3)nc2c1` [CILUPREVIR]: the pIC50 in data set [1] was 5.81. `O=C(O[C@@H]1O[C@@H]2COC(=O)c3cc(O)c(O)c(O)c3-c3c(cc(O)c(O)c3O)C(=O)O[C@H]([C@H]1O)[C@@H]2OC(=O)c1cc(O)c(O)c(O)c1)c1cc(O)c(O)c(O)c1` gave an IC50 in data set [1] of more than 10 µg/mL. Same read-out and setting: in the case of `OC[C@H]1O[C@@H](Sc2c(O)cc(O)c3c2O[C@H](c2cc(O)c(O)c(O)c2)[C@@H](O)C3)[C@H](O)[C@@H](O)[C@@H]1O` [EXCOECARIPHENOL B] it was more than 10 µg/mL; in that of `C[C@@H]1O[C@@H](OC[C@H]2O[C@@H](OCc3ccccc3)[C@H](O)[C@@H](O)[C@@H]2O)[C@H](O)[C@H](O)[C@H]1O` [HYDRANGEIFOLIN I], more than 10 µg/mL; in that of `COc1cc(O[C@@H]2O[C@H](CO)[C@@H](O)[C@H](O)[C@H]2O)cc(OC)c1O` [KOABURASIDE], more than 10 µg/mL. On the same count and under the same terms, in the case of `O=c1c(O[C@@H]2O[C@H](CO)[C@@H](O)[C@H](O)[C@H]2O)c(-c2ccc(O)c(O)c2)oc2cc(O)cc(O)c12` [ISOQUERCETIN] it was more than 10 µg/mL.

As for `O=C(O[C@@H]1O[C@@H]2COC(=O)c3cc(O)c(O)c4oc5c(O)c(O)cc(c5c34)C(=O)O[C@@H]3[C@H]1OC(=O)c1cc(O)c(O)c4c1[C@@H]1[C@@]5(C[C@]6(O)OC[C@@H](O)[C@@H]6O[C@@H]5C(O)(O)C(O)(O)[C@]1(O)O4)C(=O)O[C@@H]32)c1cc(O)c(O)c(O)c1` [EXCOECARIPHENOL D], the 50% cytotoxic concentration (CC50) at 96 h in data set [2] is 56.2 µM. In data set [3], the selectivity ratio is 4.5. The negative-log EC50 (pEC50) in the data set on Hepatitis C virus was 4.90. For the same compound, the negative-log IC50 (pIC50) in data set [1] is 5.16. Turning to `OC[C@H]1O[C@@H](Sc2c(O)cc(O)c3c2O[C@H](c2ccc(O)c(O)c2)[C@@H](O)C3)[C@H](O)[C@@H](O)[C@@H]1O` [EXCOECARIPHENOL A], the half-maximal inhibitory concentration (IC50) in data set [1] was more than 10 µg/mL. `O=C(O[C@@H]1O[C@@H]2COC(=O)c3cc(O)c(O)c(O)c3-c3c(cc(O)c(O)c3O)C(=O)O[C@H]([C@H]1O)[C@@H]2O)c1cc(O)c(O)c(O)c1` [CORILAGIN]: half-maximal cytotoxicity in data set [2] (CC50 at 96 h) was put at 96.7 µM. In addition, the selectivity ratio in data set [3] came to 7.1. Moreover, in the data set on Hepatitis C virus, the pEC50 was 4.87. In addition, in data set [1], the negative-log IC50 (pIC50) was 5.46. Taken in the same sequence, the figures for `O=C(O)C[C@@H]1C(=O)O[C@H]2[C@@H]3OC(=O)c4cc(O)c(O)c(O)c4-c4c(cc(O)c(O)c4O)C(=O)OC[C@H]2O[C@@H](OC(=O)c2cc(O)c(O)c(O)c2)[C@@H]3OC(=O)c2cc(O)c(O)c3c2[C@H]1[C@H](O)C(=O)O3` [CHEBULAGIC ACID] were 105 µM, 4.7, 4.65 and 5.04.

In data set [1], `Oc1cc(O)c2c(c1)O[C@H](c1cc(O)c(O)c(O)c1)[C@@H](O)C2` [GALLOCATECHIN] registered an IC50 of more than 10 µg/mL. In data set [2], `O=C1O[C@H]2[C@@H]3OC(=O)c4cc(O)c(O)c(O)c4-c4c(cc(O)c(O)c4O)C(=O)OC[C@H]2O[C@@H](OC(=O)c2cc(O)c(O)c(O)c2)[C@@H]3OC(=O)c2cc(O)c(O)c3c2[C@@H]2C1=CC(=O)[C@](O)(O3)C2(O)O` [GERANIIN] came in with a 50% cytotoxic concentration (CC50) at 96 h of 63.4 µM. Besides, the selectivity ratio in data set [3] amounted to 1.9. For the same compound, in the data set on Hepatitis C virus, the negative logarithm of the EC50 (pEC50) was 4.48. Further, the pIC50 in data set [1] was 5.05. Consider `Oc1cc(O)c2c(c1)O[C@H](c1ccc(O)c(O)c1)[C@@H](O)C2` [CIANIDANOL], for which, in data set [1], the IC50 is more than 10 µg/mL. On the same count and under the same terms, for `O=C1O[C@H]2[C@H](O)[C@@H](OC(=O)c3cc(O)c(O)c4c3[C@@H]3C1=CC(=O)C(O)(O)C3(O)O4)[C@H](OC(=O)c1cc(O)c(O)c(O)c1)O[C@@H]2CO` (stereo partly drawn) [FUROSIN] the value was more than 10 µg/mL; for `O=C(O[C@@H]1O[C@@H]2COC(=O)c3cc(O)c(O)c(O)c3-c3c(cc(O)c(O)c3O)C(=O)O[C@@H]([C@@H]2O)[C@H]1OC(=O)c1cc(O)c(O)c(O)c1)c1cc(O)c(O)c(O)c1`, more than 10 µg/mL. Still for that read-out and setting: in the case of `COC(=O)Cc1c(C(=O)O[C@H]2[C@H](OC(=O)c3cc(O)c(O)c(O)c3)O[C@@H]3COC(=O)c4cc(O)c(O)c(O)c4-c4c(cc(O)c(O)c4O)C(=O)O[C@H]2[C@@H]3O)cc(O)c(O)c1O` [EXCOECARIPHENOL C] it was more than 10 µg/mL.

As a reminder, the IC50 is the concentration at which inhibition is half-maximal. Broadly, the pIC50 is the negative decadic logarithm of the IC50, by convention in mol/L. The CC50 is the concentration giving 50% cytotoxicity. As usually defined, the pEC50 is the negative decadic logarithm of the EC50, by convention in mol/L.
